Structures can show the parent of a compound that is named as a salt.
Legend:
[1] = biological target: human PPARγ ligand binding domain (LBD) (Homo sapiens (Human), UniProt P37231); test: TR-FRET PPARγ competitive binding assay (Invitrogen LanthaScreen)
Procedure: The assays are conducted by first evaluation of the direct interactions of the molecules with the ligand binding domain of PPARγ. […] PPARγ binding is measured by a TR-FRET competitive binding assay using Invitrogen LanthaScreen™ TR-FRET PPARγ Competitive Binding Assay (Invitrogen #4894). This assay uses a terbium-labeled anti-GST antibody to label the GST tagged human PPARγ ligand binding domain (LBD). A fluorescent small molecule pan-PPAR ligand tracer binds to the LBD causing energy transfer from the antibody to the ligand resulting in a high TR-FRET ratio. […] The TR-FRET ratio is determined by reading the fluorescence emission at 490 and 520 nm using a Synergy2 plate reader (BioTek). The ability of compounds of the present invention to bind to PPARγ may also be measured using a commercial binding assay (Invitrogen Corporation, Carlsbad, Calif.) that measures the test compounds ability to bind with PPAR-LBD/Fluormone PPAR Green complex. These assays are performed on three occasions with each assay using duplicate wells at each concentration of tested compound. The data are mean and SEM of the values obtained from the three experiments. […] Compounds were added at the concentrations shown, which ranged from 0.1-100 micromolar.

diabetic KKAy mice = test: Glucose, insulin and triglyceride in diabetic KKAy mice; type: in vivo; conditions: orally dosed 93 mg/kg for 4 days, T/C normalized to vehicle activity
Procedure: The insulin sensitizing and antidiabetic pharmacology are measured in the KKA^Y mice as previously reported [Hofmann, C., Lomez, K., and Colca, J. R. (1991). Glucose transport deficiency corrected by treatment with the oral anti-hyperglycemic agent Pioglitazone. Endocrinology, 129:1915-1925.]. Compounds are formulated in 1% sodium carboxy methylcellulose, and 0.01% tween 20 and dosed daily by oral gavage. […] Compounds were formulated by suspension and orally dosed to KKA^Y mice at 93 mg/kg for 4 days. The compounds were first dissolved in DMSO and then placed into aqueous suspension containing 7-10% DMSO, 1% sodium methylcarboxycellulose, and 0.01% Tween 20. On the fifth day, the mice were fasted and blood samples were obtained approximately 18 hours after the last dose. The parameters were measured by standard assay methods. Data are mean and SEM N=6-12 mice.

human PPARγ ligand binding domain (LBD), sequence (P37231 238-503): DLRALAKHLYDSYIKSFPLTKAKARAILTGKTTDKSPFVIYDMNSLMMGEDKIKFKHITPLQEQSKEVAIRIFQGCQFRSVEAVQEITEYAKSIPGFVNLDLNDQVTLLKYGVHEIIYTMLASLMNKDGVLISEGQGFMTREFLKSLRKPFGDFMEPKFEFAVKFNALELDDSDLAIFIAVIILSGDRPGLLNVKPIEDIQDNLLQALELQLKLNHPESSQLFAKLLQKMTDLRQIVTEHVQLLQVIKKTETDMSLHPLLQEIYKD

Compound `CCO[C@@H](Cc1ccc(OCc2cc(OC)ccn2)cc1)C(=O)NO` [Compound 3, (2S)-2-ethoxy-N-hydroxy-3-{4-[(4-methoxypyridin-2-yl)methoxy]phenyl}propanamide hydrochloride] has an IC50 [1] greater than 250 µM.
Compound `CCO[C@@H](Cc1ccc(OCc2ccc(S(C)(=O)=O)cc2)cc1)C(=O)NOC` [Compound 9, (2S)-2-ethoxy-N-methoxy-3-(4-{[4-(methylsulfonyl)benzyl]oxy}phenyl) propanamide] has an IC50 [1] greater than 250 µM.
With `CCO[C@@H](Cc1ccc(OCc2cc(OC)ccn2)cc1)C(=O)NOC.Cl` [Compound 5, (2S)-2-ethoxy-N-methoxy-3-{4-[(4-methoxypyridin-2-yl)methoxy]phenyl}propanamide hydrochloride] the IC50 [1] was greater than 250 µM and the “Gluclose (mean T/C)” value (diabetic KKAy mice) was 0.97.
`CCO[C@@H](Cc1ccc(OCCc2ccc(OS(C)(=O)=O)cc2)cc1)C(=O)N(C)OC` [Compound 21] was tested, and the IC50 [1] was 3.7 µM.
For `CCO[C@@H](Cc1ccc(OCCc2ccc(OS(C)(=O)=O)cc2)cc1)C(=O)N(C)O` [Compound 20], the IC50 [1] was 10.9 µM.
`CCO[C@@H](Cc1ccc(OC[C@@H](O)c2cccc(OC)c2)cc1)C(=O)NOC` [Compound 12, (2S)-2-ethoxy-3-{4-[(2S)-2-hydroxy-2-(3-methoxyphenyl)ethoxy]phenyl}-N-methoxypropanamide] was tested, and the IC50 [1] was 164 µM and the “Gluclose (mean T/C)” value (diabetic KKAy mice) was 0.49.
`CCO[C@@H](Cc1ccc(OCc2cccc(I)c2)cc1)C(=O)NO` [Compound 7, (2S)-2-ethoxy-N-hydroxy-3-{4-[(3-iodobenzyl)oxy]phenyl}propanamide] showed an IC50 [1] of 11.8 µM.
For `CCO[C@@H](Cc1ccc(OCCc2ccc(OS(C)(=O)=O)cc2)cc1)C(=O)NOC` [Compound 10], the IC50 [1] was 7.9 µM.
With `CCO[C@@H](Cc1ccc(OCC(=O)c2cccc(OC)c2)cc1)C(=O)NOC` [Compound 13, (2S)-2-ethoxy-N-methoxy-3-{4-[2-(3-methoxyphenyl)-2-oxoethoxy]phenyl}Propanamide] the IC50 [1] was 61.4 µM and the “Gluclose (mean T/C)” value (diabetic KKAy mice) was 0.59.
With `CCO[C@@H](Cc1ccc(OCc2ccccn2)cc1)C(=O)NO` [Compound 1, (2S)-2-ethoxy-N-hydroxy-3-[4-(pyridin-2-ylmethoxy)phenyl]propanamide hydrogen chloride] the IC50 [1] was 58.9 µM.
`CCO[C@H](Cc1ccc(OCC(=O)c2cccc(OC)c2)cc1)C(=O)N(C)OC` [Compound 11, (2R)-2-ethoxy-N-methoxy-3-{4-[2-(3-methoxyphenyl)-2-oxoethoxy]phenyl}-N-methylpropanamide] showed an IC50 [1] of 30.5 µM.
`CCO[C@H](Cc1ccc(OC[C@H](O)c2cccc(OC)c2)cc1)C(=O)NOC` [Compound 19, (2R)-2-ethoxy-3-{4-[(2R)-2-hydroxy-2-(3-methoxyphenyl)ethoxy]phenyl}-N-methoxypropanamide] showed an IC50 [1] greater than 250 µM.
With `CCO[C@H](Cc1ccc(OC[C@@H](O)c2cccc(OC)c2)cc1)C(=O)NO` [Compound 2, (2R)-2-ethoxy-N-hydroxy-3-{4-[(2S)-2-hydroxy-2-(3-methoxyphenyl)ethoxy]phenyl}propanamide] the IC50 [1] was greater than 100 µM.
`CCO[C@@H](Cc1ccc(OC[C@@H](O)c2cccc(OC)c2)cc1)C(=O)N(C)OC` [Compound 17] showed an IC50 [1] of 27.7 µM.
With `CCO[C@H](Cc1ccc(OC[C@@H](O)c2cccc(OC)c2)cc1)C(=O)NOC` [Compound 18, (2R)-2-ethoxy-3-{4-[(2S)-2-hydroxy-2-(3-methoxyphenyl)ethoxy]phenyl}-N-methoxypropanamide] the IC50 [1] was greater than 250 µM.
`CCO[C@@H](Cc1ccc(OCc2cc(OC)ccn2)cc1)C(=O)N(C)OC` [Compound 4, (2S)-2-ethoxy-N-methoxy-3-{4-[(4-methoxypyridin-2-yl)methoxy]phenyl}-N-methylpropanamide] showed an IC50 [1] of 27.7 µM.
`CCO[C@@H](Cc1ccc(OC[C@H](O)c2cccc(OC)c2)cc1)C(=O)N(C)OC` [Compound 16, (2S)-2-Ethoxy-3-{4-[(2R)-2-hydroxy-2-(3-methoxyphenyl)ethoxy]phenyl}-N-methoxy-N-methylpropanamide] showed an IC50 [1] of 191 µM.
`CCO[C@@H](Cc1ccc(OCc2cc(OC)ccn2)cc1)C(=O)N(C)O.Cl` [Compound 6, (2S)-2-ethoxy-N-hydroxy-3-{4-[(4-methoxypyridin-2-yl)methoxy]phenyl}-N-methylpropanamide hydrochloride] was tested, and the IC50 [1] was greater than 195 µM and the “Gluclose (mean T/C)” value (diabetic KKAy mice) was 0.55.
For `CCO[C@H](Cc1ccc(OCC(=O)c2cccc(OC)c2)cc1)C(=O)NOC` [Compound 8, (2R)-2-ethoxy-N-methoxy-3-{4-[2-(3-methoxyphenyl)-2-oxoethoxy]phenyl}propanamide], the IC50 [1] was 98.5 µM.
In the case of `CCO[C@@H](Cc1ccc(OCC(=O)c2cccc(OC)c2)cc1)C(=O)N(C)OC` [Compound 14, (2S)-2-ethoxy-N-methoxy-3-{4-[2-(3-methoxyphenyl)-2-oxoethoxy]phenyl}-N-methylpropanamide], the IC50 [1] is reported as greater than 250 µM and the “Gluclose (mean T/C)” value (diabetic KKAy mice) is reported as 0.76.
For `CCO[C@@H](Cc1ccc(OC[C@H](O)c2cccc(OC)c2)cc1)C(=O)NOC` [Compound 15, (2S)-2-ethoxy-3-{4-[(2R)-2-hydroxy-2-(3-methoxyphenyl)ethoxy]phenyl}-N-methoxypropanamide], the IC50 [1] was greater than 200 µM.

From patent publication US9562012B2, “PPAR-sparing compounds for the treatment of metabolic diseases” (Metabolic Solutions Development Company, LLC, priority 2013, dated 2017)
